The text below walks through data of paper PMC9719863 (Molecular Metabolism, 2022).

Test [1] has as its target T1, mGIPR (Mus musculus, UniProt Q0P543).
T1 sequence (Q0P543 19-460): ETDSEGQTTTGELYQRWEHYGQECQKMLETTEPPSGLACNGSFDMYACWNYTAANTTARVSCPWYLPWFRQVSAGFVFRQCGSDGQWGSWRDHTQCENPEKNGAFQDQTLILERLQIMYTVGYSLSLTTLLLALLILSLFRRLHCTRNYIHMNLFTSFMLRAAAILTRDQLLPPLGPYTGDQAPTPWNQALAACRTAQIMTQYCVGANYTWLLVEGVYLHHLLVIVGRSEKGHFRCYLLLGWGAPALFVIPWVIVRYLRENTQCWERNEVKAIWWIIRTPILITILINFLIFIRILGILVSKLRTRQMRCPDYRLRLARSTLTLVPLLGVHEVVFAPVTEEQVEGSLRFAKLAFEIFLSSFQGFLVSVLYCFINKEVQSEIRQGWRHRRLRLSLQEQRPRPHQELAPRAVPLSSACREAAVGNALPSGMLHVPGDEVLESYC
As to the kind of experiment: cAMP CRE-luciferase assay in BHK cells expressing GIPR. It counts as cell-based. The conditions noted are these: for Agonism at the mGIPR (cAMP production by peptide alone): agonist mode, without native ligand.

In test [2] the target is T1, mGIPR. The test is classed as binding.
Test [3] deals with T2, hGIPR (Homo sapiens, UniProt P48546).
T2 sequence (P48546 22-466): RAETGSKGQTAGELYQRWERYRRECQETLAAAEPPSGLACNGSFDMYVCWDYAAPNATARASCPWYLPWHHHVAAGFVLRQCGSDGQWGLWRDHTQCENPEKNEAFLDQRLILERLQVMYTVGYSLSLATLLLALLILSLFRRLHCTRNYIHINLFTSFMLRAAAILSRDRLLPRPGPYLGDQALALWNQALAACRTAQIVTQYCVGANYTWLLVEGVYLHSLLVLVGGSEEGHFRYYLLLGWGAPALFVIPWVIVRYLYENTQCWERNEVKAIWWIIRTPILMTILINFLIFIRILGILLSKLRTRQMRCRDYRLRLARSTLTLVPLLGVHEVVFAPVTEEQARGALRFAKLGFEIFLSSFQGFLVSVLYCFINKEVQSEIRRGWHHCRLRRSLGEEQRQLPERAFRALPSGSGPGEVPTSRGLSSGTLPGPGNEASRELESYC
As to the kind of experiment: cAMP CRE-luciferase assay in BHK cells expressing GIPR. It counts as cell-based. The conditions noted are these: agonist mode, without native ligand.

The target in test [4] is T2, hGIPR. The test is classed as binding.
Test [5] deals with T3, human GIP receptor (human) (UniProt P48546).
T3 sequence: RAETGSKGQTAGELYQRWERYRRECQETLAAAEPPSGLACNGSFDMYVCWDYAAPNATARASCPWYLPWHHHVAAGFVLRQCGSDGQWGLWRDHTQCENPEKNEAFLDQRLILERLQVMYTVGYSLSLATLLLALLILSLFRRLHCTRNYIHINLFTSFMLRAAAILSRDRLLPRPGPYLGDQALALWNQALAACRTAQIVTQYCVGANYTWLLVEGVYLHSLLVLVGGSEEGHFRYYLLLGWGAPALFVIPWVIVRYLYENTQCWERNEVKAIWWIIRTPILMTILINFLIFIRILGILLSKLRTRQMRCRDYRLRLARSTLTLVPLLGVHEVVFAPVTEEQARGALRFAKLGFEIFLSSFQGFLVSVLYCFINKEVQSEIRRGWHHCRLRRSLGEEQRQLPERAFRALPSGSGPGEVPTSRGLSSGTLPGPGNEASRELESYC

The target of test [6] is T4, mouse GIP receptor (mouse) (UniProt Q0P543).
T4 sequence: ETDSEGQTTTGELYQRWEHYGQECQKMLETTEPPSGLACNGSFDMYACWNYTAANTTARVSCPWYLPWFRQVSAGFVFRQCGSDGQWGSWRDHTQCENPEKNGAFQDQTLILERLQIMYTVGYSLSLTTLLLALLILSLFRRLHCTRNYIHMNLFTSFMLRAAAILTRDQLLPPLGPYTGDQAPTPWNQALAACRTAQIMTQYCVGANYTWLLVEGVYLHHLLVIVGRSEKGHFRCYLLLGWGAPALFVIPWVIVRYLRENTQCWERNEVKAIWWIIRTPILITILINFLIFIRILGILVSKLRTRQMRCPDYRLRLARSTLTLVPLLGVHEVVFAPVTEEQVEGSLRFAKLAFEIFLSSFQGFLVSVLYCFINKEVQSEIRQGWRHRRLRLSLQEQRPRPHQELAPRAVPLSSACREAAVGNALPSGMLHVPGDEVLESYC

Like-named read-outs stand apart in the source and are kept apart here. *1 amine or outer side, *2 acyl side, *3 side chain or, on linkers, in order; H or OH if unused. Where a SMILES comes first, the peptide text is derived from it. Where no end group is shown, it is not given here. Side-chain parts run from the residue outwards. [ ]: non-standard residue; d: D form. The star is where a group is joined. γGlu = O=C(O)[C@H](CCC(=O)[*:2])N[*:1]; Palmitoyl = CCCCCCCCCCCCCCCC(=O)*; PhLac = O=C(O)[C@@H](O)Cc1ccccc1

The term IC50 denotes the point on the concentration scale where inhibition reaches its midpoint. Low readings indicate higher potency, high ones lower potency. Consider `CC[C@H](C)[C@H](NC(=O)[C@H](CO)NC(=O)[C@H](Cc1ccc(O)cc1)NC(=O)[C@H](CC(=O)O)NC(=O)[C@H](CO)NC(=O)[C@@H](NC(=O)[C@H](Cc1ccccc1)NC(=O)[C@@H](NC(=O)CNC(=O)[C@@H](N)CCC(=O)O)[C@@H](C)O)[C@@H](C)CC)C(=O)N[C@@H](C)C(=O)N[C@@H](CCSC)C(=O)N[C@@H](CC(=O)O)C(=O)N[C@@H](CCCCN)C(=O)N[C@H](C(=O)N[C@@H](Cc1c[nH]cn1)C(=O)N[C@@H](CCC(N)=O)C(=O)N[C@@H](CCC(N)=O)C(=O)N[C@@H](CC(=O)O)C(=O)N[C@@H](Cc1ccccc1)C(=O)N[C@H](C(=O)N[C@@H](CC(N)=O)C(=O)N[C@@H](Cc1c[nH]c2ccccc12)C(=O)N[C@@H](CC(C)C)C(=O)N[C@@H](CC(C)C)C(=O)N[C@@H](C)C(=O)N[C@@H](CCC(N)=O)C(=O)N[C@@H](CCCCN)C(N)=O)C(C)C)[C@@H](C)CC` [Peptide 1, hGIP(3–30), reference compound], for which the IC50 is more than 6000 nM in test [1] and 35.1 ± 16.9 nM in test [2]. The “Agonism at the mGIPR (cAMP production by peptide alone)” value (“Agonism at the mGIPR” below) in test [1] is “no significant agonism”. Moreover, the “Agonism at the hGIPR (cAMP production by peptide alone)” value (from here on “Agonism at the hGIPR”) in test [3] was “partial agonism”.

Take `CC[C@H](C)[C@H](NC(=O)[C@H](CO)NC(=O)[C@H](Cc1ccc(O)cc1)NC(=O)[C@H](CC(=O)O)NC(=O)[C@H](CO)NC(=O)[C@@H](NC(=O)[C@@H](O)Cc1ccccc1)[C@@H](C)CC)C(=O)N[C@@H](C)C(=O)N[C@@H](CC(C)C)C(=O)N[C@@H](CC(=O)O)C(=O)N[C@@H](CCCCN)C(=O)N[C@H](C(=O)N[C@@H](CCCNC(=N)N)C(=O)N[C@@H](CCC(N)=O)C(=O)N[C@@H](CCC(N)=O)C(=O)N[C@@H](CCC(=O)O)C(=O)N[C@@H](Cc1ccccc1)C(=O)N[C@H](C(=O)N[C@@H](CC(N)=O)C(=O)N[C@@H](Cc1c[nH]c2ccccc12)C(=O)N[C@@H](CC(C)C)C(=O)N[C@@H](CC(C)C)C(=O)N[C@@H](C)C(=O)N[C@@H](CCC(N)=O)C(=O)N[C@@H](CCCCN)C(=O)NCC(=O)O)C(C)C)[C@@H](C)CC` [Peptide 5, [Pla6, L14, R18, E21] hGIP(6–31)] (H-[PhLac]ISDYSIALDKIRQQEFVNWLLAQKG-OH): in test [1], the “Agonism at the mGIPR” value is listed as “no significant agonism”. The IC50 in test [2] came out at 22.7 ± 7.9 nM; in test [4], 2.98 ± 1.68 nM. The “Agonism at the hGIPR” value in test [3] is reported as “no significant agonism”.

Consider `CCCCCCCCCCCCCCCC(=O)N[C@@H](CCC(=O)NCCCC[C@H](NC(=O)[C@H](Cc1ccc(O)cc1)NC(=O)[C@H](CC(=O)O)NC(=O)[C@H](CO)NC(=O)[C@@H](NC(=O)[C@@H](O)Cc1ccccc1)[C@@H](C)CC)C(=O)N[C@H](C(=O)N[C@@H](C)C(=O)N[C@@H](CC(C)C)C(=O)N[C@@H](CC(=O)O)C(=O)N[C@@H](CCCCN)C(=O)N[C@H](C(=O)N[C@@H](CCCNC(=N)N)C(=O)N[C@@H](CCC(N)=O)C(=O)N[C@@H](CCC(N)=O)C(=O)N[C@@H](CCC(=O)O)C(=O)N[C@@H](Cc1ccccc1)C(=O)N[C@H](C(=O)N[C@@H](CC(N)=O)C(=O)N[C@@H](Cc1c[nH]c2ccccc12)C(=O)N[C@@H](CC(C)C)C(=O)N[C@@H](CC(C)C)C(=O)N[C@@H](C)C(=O)N[C@@H](CCC(N)=O)C(=O)N[C@@H](CCCCN)C(=O)NCC(=O)O)C(C)C)[C@@H](C)CC)[C@@H](C)CC)C(=O)O` [Peptide 8, [Pla6, L14, R18, E21] hGIP(6–31)-K11 (γE-C16)] (H-[PhLac]ISDYK([γGlu-Palmitoyl])IALDKIRQQEFVNWLLAQKG-OH), for which the “Agonism at the mGIPR” value in test [1] is recorded as “negligible cAMP production as agonists”. The IC50 worked out at 1.55 ± 0.07 nM in test [2] and 0.5 ± 0.08 nM in test [4]. For the same molecule, the “Agonism at the hGIPR” value in test [3] is given as “negligible cAMP production as agonists”.

B1: [L14, R18, E21] hGIP(3-30) amide (peptide)
peptide: EGTFISDYSIALDKIRQQEFVNWLLAQK-NH2
On to B1, for which the maximal % inhibition of GIP-induced cAMP in BHK cells expressing hGIPR in test [5] came to 72%. Moreover, the maximal % inhibition of GIP-induced cAMP in BHK cells expressing mGIPR in test [6] stood at 86%.
